Measurements: patent US20170071880A1, “SELEGILINE TRANSDERMAL SYSTEM” (KAT Transdermals LLC, priority 2012, published 2017)

Assay: Solubility of selegiline in pressure sensitive adhesive polymers
Type: physicochemical
Text: The invention pertains to the transdermal delivery of selegiline for the treatment of depression, Parkinson's disease and other neurologic conditions. […] Acrylic pressure sensitive adhesives (PSAs) that could be used with the invention include those based on pure acrylate monomers as well as acrylate copolymers and terpolymers using for example as the comonomers vinyl acetate or hydrocarbon copolymers which may also include pacifiers and other pressure sensitive adhesive modifiers. Commercially available acrylate copolymers include those made by Henkel Corporation under the trade names of Duro-Tak 87-900A (DT 87-900A), 87-901A, 87-9301, 87-9088, and 87-4098. […] Of specific interest is the pressure sensitive adhesive DT 87-4098 which is the only copolymer mentioned above that contains vinyl acetate and which has low levels of peel, shear and tack which can then be enhanced by the incorporation of large amounts of plasticizing liquids such as selegiline. Since these polymers are not crosslinked, the resistance of movement of the drug through the patch itself will be very low thus enhancing the permeability through human skin. Thus it is an object of our invention to use non-crosslinked acrylate copolymer PSAs in matrix selegiline patches, especially PSA DT 87-4098, to provide for excellent permeation of selegiline through human skin. Another object of our invention is to use humectant/solubilizers in the matrix patch to provide for stabilization of the patch through absorption and immobilization of the liquids in the patch. For example such humectant/solubilizers include PVP, PVP/VA, hydroxypropylcellulose, hydroxyethylcellulose, hydroxypropylmethylcellulose, methyl cellulose, Sodium carboxymethyl cellulose, colloidal silica, Xantham Gum, and polyacrylic acid. By experiment we determined that the best humectant/solubilizer for matrix patches delivering selegiline is PVP/VA. PVP/VA has the ability to properly disperse/solubilize within the PSA matrix and to provide additional stability to the matrix, absorb the liquid selegiline base and prevent syneresis. In prior art, PVP was specifically excluded from the use in selegiline patches, which in our case, where we use non crosslinked acrylic PSAs, are shown to be very important to the development of a patch of our invention. It is another object of our invention to incorporate in the matrix PSA humectant/solubilizers, and especially PVP/VA, in the amounts of between 3 to 30% on the weight of the PSA, to provide for better syneresis, adhesion to skin and more rapid permeation of the drug through the skin. The ability of the composition of our patch is such that volatile and non-volatile enhancers can be included in the formulations, which are specifically excluded in the prior art Volatile enhancers for the case of our invention are liquids that have a vapor pressure at 20 degrees Centigrade which is higher than 0.2 mm Hg. Volatile enhancers such as Dimethylsulfoxide (DMSO), decylmethylsulfoxide lactates such as ethyl lactate and propyl lactate isobutyl lactate and lauryl lactate can be incorporated in the PSA matrix system of the selegiline patch of our invention. Thus it is another object of our invention to incorporate volatile enhancers in our patch so as to increase the permeation of selegiline through the human skin and reduce the size of the patch. […]

With `C#CCN(C)[C@H](C)Cc1ccccc1` [selegiline] the “solubility of selegiline in PSA” value (in non-crosslinked acrylic copolymer PSA DT 87-4098) was 59 wt %, the “solubility of selegiline in PSA” value (in non-crosslinked acrylic copolymer PSA DT 87-9088) was 118 wt % and the “solubility of selegiline in PSA” value (in non-crosslinked acrylic copolymer PSA DT 87-9301) was 81 wt %. For the same compound, the “solubility of selegiline in PSA” value (in polyisobutylene (PIB) PSA) was 8 wt % and the “solubility of selegiline in PSA” value (in silicone PSA) was 6 wt %.
